Data as given in publication PMC12609950, “Evaluation of ^161Tb-Labeled Diphosphonates as Potential Bone-Targeting Agents” (International Journal of Molecular Sciences, 2025).

Tests used:
[1] = Cyclic voltammetry of Tb, HEDP and ZOL; conditions: glassy carbon electrode, Ag/AgCl reference, carbonate buffer pH 9
[2] = Radioelectrophoresis (net charge of complexes); type: physicochemical; conditions: 0.05 M phosphate buffer pH 7.4, 250 V, 1 h
Method: Radioelectrophoresis was employed to determine the net charge of the ^161Tb-labeled diphosphonate complexes and to confirm successful radiolabeling. For each sample, 5 μL of the radiolabeled complex or a control solution of ^161TbCl3 was applied to the center of Whatman 3MM chromatography paper strips (2 × 25 cm), which had been pre-soaked in 0.05 M phosphate buffer (pH 7.4). The strips were placed in an electrophoresis chamber filled with the same phosphate buffer, and electrophoresis was carried out at 250 V for 1 h using a Gelman Instrument electrophoresis system (Gelman Instrument Co., Ann Arbor, MI, USA). After radioelectrophoresis, each strip was dried and scanned using a TLC scanner. This method allowed the determination of the migration pattern of the radiolabeled species compared to free ^161Tb^3+, providing information about the charge and integrity of the formed complexes.

[3] = Biodistribution in healthy Wistar rats; type: in vivo; conditions: i.v.
Method: All animal experiments were conducted using healthy Wistar rats weighing 100–120 g. The rats were obtained from the Military Medical Academy (Belgrade, Serbia). All procedures involving animals were approved by the Ethical Committee of the Vinča Institute of Nuclear Sciences (permission No. 002225501 2025, issued on 20 May 2025) and were performed by the Directive 2010/63/EU of the European Parliament and of the Council of 22 September 2010 [50] on the protection of animals used for scientific purposes, as well as national animal welfare laws.
A total of 0.74 MBq of each ^161Tb-labeled compound (^161Tb-HEDP and ^161Tb-ZOL) and free ^161TbCl3 (at pH 7.5 and pH 4.5) was prepared in a final injection volume of 0.1 mL. Physiological saline was added to adjust the concentration to 10 µg of radiolabeled complex per 0.1 mL. Each formulation was administered intravenously via the lateral tail vein.
Animals (n = 3 per time point) were sacrificed at predetermined intervals: 2 h, 24 h, and 7 d post-injection, depending on the study group. Euthanasia was performed by intraperitoneal injection of a ketamine/xylazine overdose. Immediately after sacrifice, major organs and tissues (heart, lungs, liver, spleen, kidneys, stomach, intestines, muscle, and femur) were collected, weighed, and assessed for radioactivity using a gamma counter. The biodistribution of radiolabeled compounds was expressed as the percentage of the injected dose per gram of tissue (%ID/g), calculated by comparing the sample activity to that of the standard representing 100% of the injected dose. All data are presented as mean ± standard deviation (SD).

[4] = 2 h post-injection (initial), injected at pH 4.5
[5] = 2 h post-injection, injected at pH 4.5
[6] = 2 h post-injection, injected at pH 7.5
[7] = 7 d post-injection, injected at pH 7.5

CC(O)(P(=O)(O)O)P(=O)(O)O [HEDP, 1-Hydroxyethylidene-1,1-diphosphonic acid]
Second Oxidation Pot. [1]: 1.45 V | Second Reduction Pot. [1]: −0.54 V

O=P(O)(O)C(O)(Cn1ccnc1)P(=O)(O)O [ZOL, 1-hydroxy-2-(1H-imidazol-1-yl)ethane-1,1-diyldiphosphonic acid]
First Oxidation Pot. [1]: 0.93 V | First Reduction Pot. [1]: 0.41 V | Second Oxidation Pot. [1]: 1.27 V | Second Reduction Pot. [1]: −0.54 V

O.O.O.O.O.O.[Cl-].[Cl-].[Cl-].[Tb+3] [Tb, terbium(III) chloride hexahydrate]
Second Oxidation Pot. [1]: 1.39 V | Second Reduction Pot. [1]: −0.56 V

[161Tb+3].[Cl-].[Cl-].[Cl-] [^161TbCl3]
Migration / net charge in radioelectrophoresis [2]: remained at the point of application | Liver [3, 4]: 1.88 ± 0.31 %ID/g | Spleen uptake [3, 4]: 0.37 ± 0.12 %ID/g | Blood [3, 5]: 0.02 ± 0.01 %ID/g | Bone uptake [3, 5]: 7.31 ± 0.32 %ID/g | Bone-to-kidney ratio [3, 5]: 3.97 | Bone-to-liver ratio [3, 5]: 3.89 | Muscle [3, 5]: 0.08 ± 0.05 %ID/g | Other tissues [3, 5]: Minimal uptake | Kidney ([3]; 2 h post-injection, injected at pH 4.5, listed as 161TbCl3 (pH 4.5)): 1.84 ± 0.07 %ID/g | Bone uptake [3, 6]: 6.53 ± 0.22 %ID/g | Kidney uptake [3, 6]: 1.03 ± 0.06 %ID/g | Liver uptake [3, 6]: 6.99 ± 0.21 %ID/g | Spleen uptake [3, 6]: 4.88 ± 0.15 %ID/g | Bone uptake ([3]; 24 h post-injection, injected at pH 7.5): 6.61 ± 0.14 %ID/g | Bone uptake ([3]; 7 d post-injection, injected at pH 4.5): 7.18 ± 0.12 %ID/g | Bone uptake [3, 7]: 6.68 ± 0.29 %ID/g | Kidney uptake [3, 7]: 0.60 ± 0.02 %ID/g | Liver uptake [3, 7]: 2.33 ± 0.02 %ID/g | Spleen uptake [3, 7]: 0.79 ± 0.02 %ID/g
